Source: patent US20030186869A1, “Polymer compositions comprising antifibrotic agents, and methods of treatment, pharmaceutical compositions, and methods of preparation therefor” (priority 1990, published 2003)

Legend:
[1] = system: Sprague-Dawley rats housed under hypoxic conditions (10% O2); test: Hypoxic rat model of pulmonary hypertension, CHOP-PEG; format: in vivo; details: 10 mg in 7-day minipump
[2] = system: Sprague-Dawley rats housed under hypoxic conditions (10% O2); test: as above; format: in vivo
Method: The anti-pulmonary hypertensive activity of the polymer compositions was tested in the hypoxic rat model (as described in detail above). […] PH is manifested histologically by vascular remodeling (collagen accumulation and fibroblastic hypertrophy), increased right ventricular work-load, thickening of the pulmonary artery, and hypertrophy of the right ventricular cardiac wall. […] Drug treatment can take place during the acute induction phase (days 0-7) or following the establishment of experimental PH (day 7 or later). Intravenous (i.v.), subcutaneous (s.c.), intra-tracheal instillation, and osmotic minipump delivery have been tested. Experiments are scored by obtaining the mean RVP measurement. Results are expressed as either RVP in mm Hg, or preferably as the reduction in the RVP by the formula: […] On day 7 the RVP was measured and compared to animals maintained in normoxic conditions (10.4 mm Hg) and to untreated animals kept in hypoxic conditions (19.3 mm Hg).

RFL-6 cells = test: IC50 experiment, cytotoxicity / growth inhibition of RFL-6 rat fibroblast cells; format: cell-based
Method: In this test two different synthesis batches of cis-hydroxyproline (CHOP) linked to PEG were tested, along with free CHOP. […] The differences between the two batches of CHOP-PEG are not significant.

For poly(PEG-Lys-cHyp amide) [CHOP-PEG], the “reduction of RVP” value ([1]; day 10) was 56%, the “reduction of RVP” value ([1]; day 14) was 45% and the “reduction of RVP at minimum maximally effective dose” value ([2]; 0.8 mg total dose per animal, acute PH) was > 70%. For the same substance, the “reduction of RVP” value ([2]; 10 mg in 7-day minipump, day 7) was 74%, the “reduction of RVP” value ([2]; 7-day miniosmotic pump, both drug treated groups (1 or 4 mg, FIG. 18)) was 76% and the “reduction of RVP” value ([2]; 7-day minipump, 1.0 mg) was “more than 50%”. The “reduction of RVP” value ([2]; intratracheal instillation 90 mg on days 0 and 2) was 51%, the RVP ([2]; intratracheal instillation 90 mg on days 0 and 2, reduced from 20) was 15 mm Hg and the “effect on RVP in rats under normoxic conditions” value ([2]; normoxic, intratracheal instillation, similar treatment) was “no effect”. The “reduction of RVP” value ([2]; single i.v. dose 0.8 mg on day 0, RVP on day 7) was ~50%, the “reduction of RVP” value ([2]; subcutaneous route, 7 day hypoxic rat model) was “minimal reduction of RVP” and the “minimum dose that reduces RVP maximally in acute PH” value ([2]; total dose per animal) was 0.8 mg. The IC50 (RFL-6 cells; PEG construct, mean ± SD (n), read-out: IC50, AA-Lys-PEG) was 5.6 ± 1.5 mM and the “inhibition of rat fibroblast growth, polymeric constructs versus free amino acid” value (RFL-6 cells; two synthesis batches (1 and 2), FIG. 15) was “to a similar extent”.
